Where two headings read alike, the source gives them in different places.

Here are results for five compounds from paper PMC9268484, “New Flavonoid Derivatives from Melodorum fruticosum and Their α-Glucosidase Inhibitory and Cytotoxic Activities” (Molecules, 2022).

The nature of data set [1]: MTT cytotoxicity assay, MCF7. The format is cell-based. The conditions noted are these: human, means ± SD of three replicates. As to the method:
(§1) The cancer cells were cultured in Dulbecco’s Modified Eagle’s Medium with 10% Fetal Bovine Serum, 1% penicillin and streptomycin, and 1% L-glutamine at 37 °C in a 5% CO2 environment. The tested compounds were added at concentrations ranging from 0.5 to 128 μg/mL by dissolving in DMSO (20 mg/mL) and incubated for a further 72 h in the identical condition. After the treatment, each well was filled with an MTT solution (10 μL, 5 mg/mL) of phosphate buffer, which was left to stand for 4 h until intracellular purple formazan crystals appeared. The MTT was removed and a 100 μL DMSO solution was added. The blank contained only a medium without any cells and MTT, as well as the solubilizing solution. The solution’s optical density (OD) at 540 nm was recorded on a BIOTEK reader. All experiments were carried out in triplicate for three independent experiments. IC50 values were computed graphically using inhibition curves.

Data set [2] in a line: MTT cytotoxicity assay, Hep G2. Format: cell-based. Conditions: human, means ± SD of three replicates. As to the method:
as §1

In the next data set the test system is MCF7 cell line. The conditions noted are these: cited from earlier work.
Data set [3] can be described thus: MTT cytotoxicity assay, KB. Conditions: human, means ± SD of three replicates. Format: cell-based. The procedure: as §1
Another data set relates to normal Vero cell line. On the set-up: method as in doi:10.1007/s00044-017-1843-8. Conditions: cited from earlier work.
The next data set relates to α-glucosidase. Details: method as in doi:10.1016/S0031-9422(99)00314-3. Conditions: cited from earlier work.
In a further data set the test system is KB cell line. Details: method as in doi:10.1016/j.phytol.2012.09.007. Conditions: read-out: Cytotoxicity IC50, KB (previous research); cited from earlier work.
The subject of a further data set is Hep G2 cell line. On the set-up: method as in PMID 29116937, doi:10.1016/j.phytol.2019.05.003. Conditions: read-out: Cytotoxicity IC50, Hep G2 (previous research); cited from earlier work.
[4] abbreviates: MCF-7 cells (human breast adenocarcinoma).
[5] abbreviates: read-out: Cytotoxicity IC50, MCF7 (previous research).

In data set [1] (setting [4]), `CC(C)=CCc1cc2c(c(O)c1O)C(=O)C[C@@H](c1ccccc1)O2` [Compound 3, melodorone C] displayed an IC50 at 72 h greater than 100 µM.
Regarding `O=C1C[C@@H](c2ccccc2)Oc2cc(O)cc(O)c21` [Compound 7, pinocembrin], the IC50 at 72 h in data set [1] (setting [4]), in data set [2] (Hep G2 cells (human hepatocellular carcinoma)) and in data set [3] (KB cells (human epidermoid carcinoma)) was greater than 100 µM in each case. Besides, the IC50 in the data set with MCF7 cell line (48 h, read-out: Cytotoxicity IC50, MCF7, 48 h) was 226 µM; in the data set on MCF7 cell line (72 h, read-out: Cytotoxicity IC50, MCF7, 72 h), 108 µM. For the same compound, in the data set with normal Vero cell line, the “Cytotoxicity against normal Vero cell line” value is “no cytotoxicity”. Besides, the “α-Glucosidase inhibition (previous research, in words)” value in the data set on α-glucosidase was “no α-glucosidase inhibition”.
`COc1cc(O)c2c(=O)cc(-c3ccccc3)oc2c1` [Compound 4, tectochrysin]: the IC50 was 55.3 µM in the data set on KB cell line and 16.7 µM with MCF7 cell line (setting [5]). Further, the “α-Glucosidase inhibition (previous research, in words)” value with α-glucosidase is “no α-glucosidase inhibition”.
Consider `O=c1cc(-c2ccccc2)oc2cc(O)cc(O)c12` [Compound 5, chrysin], for which the concentration for half-maximal inhibition (IC50) was 50.6 µM in the data set on Hep G2 cell line, 37.2 µM in the data set on MCF7 cell line (setting [5]) and 5.7 µM at α-glucosidase (read-out: α-Glucosidase inhibition IC50 (previous research)). Besides, in the data set with normal Vero cell line, the “Cytotoxicity against normal Vero cell line” value is “no cytotoxicity”.
In the case of `COc1cc2c(c(O)c1OC)C(=O)C[C@@H](c1ccccc1)O2` [Compound 6, onysilin], the concentration for half-maximal inhibition (IC50) at 72 h in data set [1], in data set [2] and in data set [3] was greater than 100 µM in each case.
